Among the data in ChEMBL document CHEMBL1137959, “Two new bacterial DNA primase inhibitors from the plant Polygonum cuspidatum” (Bioorg Med Chem Lett, 2004) are IC50 values, retold here.

The target in assay [1] is Nucleic Acid. The experiment in a line: Inhibitory activity against bacterial DNA primase. It counts as nucleic-acid assay, Escherichia coli.
Assay [2] deals with Nucleic Acid. The experiment in a line: Inhibitory activity against bacterial DNA primase in fluorescent intercalator dye displacement assay (FID). It counts as nucleic-acid assay, Escherichia coli.

Each structure is given as a SMILES string.

Usually IC50 stands for the concentration that gives 50% inhibition. A low value points to greater potency in that assay. Take `O=C(O[C@@H]1[C@@H](Oc2cc(O)cc(/C=C/c3ccc(O)cc3)c2)O[C@@H](CO)[C@@H](O)[C@@H]1O)c1cc(O)c(O)c(O)c1`: the IC50 against Nucleic Acid [1] and on Nucleic Acid [2] was 4 µM each time.

As to `O=C(OC[C@@H]1O[C@H](Oc2cc(O)cc(/C=C/c3ccc(O)cc3)c2)[C@@H](O)[C@@H](O)[C@@H]1O)c1cc(O)c(O)c(O)c1`, on Nucleic Acid [1], the midpoint of inhibition, the IC50, lay at 5 µM.
